# Reference: publication PMC9082971, “Nature-derived epoxy resins: Synthesis, allergenicity, and thermosetting properties of pinoresinol diglycidyl ether” (Toxicology and Industrial Health, 2022)
# Where two headings read alike, the source gives them in different places.
# Columns and labels:
# [1] = tested on: mice and guinea pigs; conditions: cited from earlier work
# [2] = Cellular viability (MTT) in the KeratinoSens assay; assay type: cell-based; conditions: human, KeratinoSens reporter keratinocytes, 50% reduction in cellular viability, read-out: Cytotoxicity IC50
# Experimental: (§1) KeratinoSens Assay for Sensitization and Cellular Viability. The KeratinoSens™ assay was performed according to the OECD guidelines ([OECD, 2018]). Compounds were incubated at 12 concentrations (0.98–2000 μM) for 48 h with cinnamic aldehyde as the positive control. The experiment was repeated on three independent occasions.
# [3] = tested on: model peptide AcPHCKRM; test: Reactivity toward the model peptide AcPHCKRM (peptide depletion, HPLC/ESI-MS); conditions: 10 mM compound, 1 mM AcPHCKRM
# Experimental: All solvents were degassed with argon prior to use. […] Monoepoxides PGE, 1 or 2 were prepared in DMSO (40 mM, 100 μL) together with potassium phosphate buffer (100 mM, pH 7.4) (200 μL) and separately added to a vial purged with argon containing AcPHCKRM dissolved in DMSO (4 mM, 100 μL).
# Based on our previous studies regarding the chemical reactivity of the epoxide-containing compounds ([O’Boyle et al., 2014]; [Ponting et al., 2019]), the depletion of the nucleophilic hexapeptide Ac-Pro-His-Cys-Lys-Arg-Met-OH (AcPHCKRM) was analyzed in reaction mixtures at pH 7.4 with a 10-fold excess of the respective test chemical in a mixture of phosphate buffer and DMSO.
# [4] = Solubility in the LLNA test vehicle; assay type: physicochemical
# Description: (§2) In Vivo Skin Sensitizing Potency Studies. The LLNA was used to assess the skin sensitizing potency of PinoDGE. […] The standard vehicle, acetone: olive oil (AOO) (4:1), was initially used as the vehicle. […] Pure acetone is described as a suitable vehicle in the LLNA ([Jowsey et al., 2008]); however, a closer match to AOO was desired, leading to the choice of AOO 16:1.
# [5] = tested on: CBA/Ca mice; test: Murine local lymph node assay (LLNA); assay type: in vivo
# Experimental: (§3) Experimental Animals. Female CBA/Ca mice, 7 or 9 weeks of age, were purchased from NOVA SCB Charles River, Germany. The mice were housed in HEPA filtered airflow cages and kept on standard laboratory diet and water ad lib. The regional ethics committee, Jordbruksverket, approved the protocol and the procedure was performed in accordance with the guidelines. Sensitization Potential of PinoDGE in Mice. […] Computational Techniques. Reactivity of cysteine residues toward the compounds under investigation was modeled as reactivity toward methanethiolate. Reactivity calculations were carried out at the B3LYP-D3/6–31+G**([Stephens et al., 1994]; [Becke, 1988]; [Slater, 1974]; [Goerigk and Grimme, 2011]; [Grimme et al., 2010]; [Ditchfield et al., 1971]) level of theory in Jaguar (Schrodinger LLC, N. Y. Jaguar, version 7.6, 2009). Further experimental details are contained in the supplementary information. Cross-Linking Procedure and Thermogravimetric Analysis (TGA).
# as §2
# [6] = Cross-linking with TETA and thermogravimetric analysis (TGA); assay type: physicochemical
# Experimental: as §3
# Cross-Linking of PinoDGE with TETA. […] Initial decomposition temperature (IDT) indicated the apparent thermal stability of the epoxy resin.
# [7] = tested on: KeratinoSens reporter keratinocytes (luciferase gene under control of the ARE element of the AKR1C2 gene); test: KeratinoSens ARE-Nrf2 luciferase assay; assay type: cell-based; conditions: for Classification: KeratinoSens, luciferase induction greater than 1.5-fold at non-cytotoxic concentrations; for ECKS1.5: extrapolated concentration for 1.5 fold luciferase induction; for ECKS4.5: extrapolated concentration for 4.5 fold luciferase induction
# Experimental: as §1
# In Vitro Skin Sensitization: KeratinoSens ARE-Nrf2 Luciferase Assay. […] ECKS1.5 represents the extrapolated concentration for which induction of luciferase activity is above the 1.5 fold threshold (i.e., 50% enhanced luciferase activity). The ECKS4.5 values were used for comparison of sensitizing potency.
# [8] = tested on: CBA/Ca mice; conditions: cited from earlier work
# [9] = tested on: KeratinoSens reporter keratinocytes; conditions: read-out: Cytotoxicity IC50; 50% reduction in cellular viability, MTT assay; ref Delaine et al., 2011; cited from earlier work
# [10] = tested on: KeratinoSens reporter keratinocytes (luciferase gene under control of the ARE element of the AKR1C2 gene); conditions: cited from earlier work
# [11] = design: method as in O’Boyle et al., 2014; conditions: ref O’Boyle et al., 2014, cited from earlier work
# [12] = after 45 min, pH 7.4 phosphate buffer/DMSO
# [13] = AOO 16:1, 10% w/v (0.21 M), precipitating from solution on the ears of the mice
# [14] = cross-linked with TETA, TGA under nitrogen
# [15] = cured epoxy resin, Horwitz-Metzger equation
# [16] = LLNA, ref Niklasson et al., 2009
smiles,measurement,setting,value
"c1cc(OCC2CO2)ccc1Cc1ccc(OCC2CO2)cc1 (centres unmarked) [DGEBF, diglycidyl ether of bisphenol F]",Classification as sensitizer,[1]; in vivo,strong sensitizers
"COc1cc([C@H]2OC[C@H]3[C@@H]2CO[C@@H]3c2ccc(OCC3CO3)c(OC)c2)ccc1OCC1CO1 (some centres unmarked) [PinoDGE, pinoresinol diglycidyl ether]",IC50 at 48 h,[2],24 µM
same,peptide remaining,[3]; [12],8%
same,peptide remaining,"[3]; after 85 min, pH 7.4",5%
same,Solubility in vehicle,"[4]; AOO 16:1, precipitated from a 10% w/v solution",up to 8 % w/v
same,Solubility in vehicle,[4]; AOO (4:1),≤ 5 % w/v
same,solubility,"[4]; acetone:olive oil (AOO) 4:1, organic solvent or mixture, AOO (4:1)",≤ 110 mM
same,solubility,"[4]; acetone:olive oil (AOO) 16:1, organic solvent or mixture, AOO 16:1, precipitated from a 10% w/v solution",≤ 170 mM
same,(3H)thymidine incorporation,"[5]; AOO 4:1, 0.10% w/v (0.0021 M)",280 dpm/lymph node
same,SI,"[5]; AOO 4:1, 0.10% w/v (0.0021 M)",0.94
same,(3H)thymidine incorporation,"[5]; AOO 4:1, 1.0% w/v (0.021 M)",368 dpm/lymph node
same,SI,"[5]; AOO 4:1, 1.0% w/v (0.021 M)",1.23
same,(3H)thymidine incorporation,"[5]; AOO 4:1, 2.5% w/v (0.053 M)",166 dpm/lymph node
same,SI,"[5]; AOO 4:1, 2.5% w/v (0.053 M)",0.56
same,(3H)thymidine incorporation,"[5]; AOO 4:1, 3.0% w/v (0.064 M)",325 dpm/lymph node
same,SI,"[5]; AOO 4:1, 3.0% w/v (0.064 M)",1.09
same,(3H)thymidine incorporation,"[5]; AOO 4:1, 5.0% w/v (0.11 M)",327 dpm/lymph node
same,SI,"[5]; AOO 4:1, 5.0% w/v (0.11 M)",1.10
same,(3H)thymidine incorporation,"[5]; AOO 16:1, 2.0% w/v (0.043 M)",130 dpm/lymph node
same,SI,"[5]; AOO 16:1, 2.0% w/v (0.043 M)",0.52
same,(3H)thymidine incorporation,"[5]; AOO 16:1, 4.0% w/v (0.085 M)",180 dpm/lymph node
same,SI,"[5]; AOO 16:1, 4.0% w/v (0.085 M)",0.73
same,(3H)thymidine incorporation,"[5]; AOO 16:1, 6.0% w/v ([…])",195 dpm/lymph node
same,SI,"[5]; AOO 16:1, 6.0% w/v ([…])",0.79
same,(3H)thymidine incorporation,"[5]; AOO 16:1, 8.0% w/v (0.17 M)",480 dpm/lymph node
same,SI,"[5]; AOO 16:1, 8.0% w/v (0.17 M)",1.94
same,(3H)thymidine incorporation,[5]; [13],180 dpm/lymph node
same,SI,[5]; [13],0.73
same,EC3,"[5]; LLNA, AOO 4:1 and AOO 16:1",> 0.17 M
same,SI,"[5]; any of the concentrations tested, both vehicles",≤ 3
same,LLNA classification,[5]; concentrations up to 0.17 M,not classified as a skin sensitizer
same,maximum rate of degradation (Rmax) relative to DGEBA,[6]; Rmax as percentage of that of DGEBA,58%
same,IDT (initial decomposition temperature),[6]; [14],338 ˚C
same,Rmax (maximum weight loss rate),[6]; [14],−0.92 %/˚C
same,Tmax (temperature at maximum rate of weight loss),[6]; [14],370 ˚C
same,Ea (activation energy for decomposition),[6]; [15],30.6 kcal/mol
same,IDT lower than that of DGEBA,[6]; difference to DGEBA polymer,20 °C
same,Tmax lower than that of DGEBA,[6]; difference to DGEBA polymer,12 °C
same,Classification,[7],skin sensitizer
same,ECKS1.5,[7],2.5 µM
same,ECKS4.5,[7],7.4 µM
"c1ccc(OCC2CO2)cc1 (centres unmarked) [PGE, phenylglycidyl ether]",peptide remaining,"[3]; after 40 min, pH 7.4",35%
same,peptide remaining,"[3]; at 200 min, pH 7.4",26%
same,EC3,[8]; [16],0.031 M
same,LLNA classification,"[8]; ref Niklasson et al., 2009",strong sensitizer
same,IC50,[9],182 µM
same,Imax (fold induction),"[10]; average maximal induction of gene activity, ref Delaine et al., 2011",56 fold induction
same,ECKS1.5,"[10]; extrapolated concentration for 1.5 fold luciferase induction, ref Delaine et al., 2011",16 µM
same,ECKS4.5,"[10]; extrapolated concentration for 4.5 fold luciferase induction, ref Delaine et al., 2011",63 µM
"CCCCCCC(C=O)=Cc1ccccc1 [HCA, hexylcinnamic aldehyde, reference compound]",EC3,"[8]; reported values in 4:1 AOO, ref OECD, 2010",4.4–14.7 % w/v
same,EC3,[5]; control experiment in AOO 16:1,11.8 % w/v
"COc1ccccc1OCC1CO1 (centres unmarked) [Compound 1, 2-((2-methoxyphenoxy)methyl)oxirane]",ECKS1.5,[7],23 µM
same,ECKS4.5,[7],64 µM
"CC(C)(c1ccc(OCC2CO2)cc1)c1ccc(OCC2CO2)cc1 (centres unmarked) [DGEBA, diglycidyl ether of bisphenol A]",peptide remaining,[3]; [12],37%
same,peptide remaining,"[3]; after 85 min, pH 7.4",18%
same,peptide remaining,"[3]; after 205 min, pH 7.4",7%
same,IDT (initial decomposition temperature),[11]; [14],358 ˚C
same,Rmax (maximum weight loss rate),[11]; [14],−1.58 %/˚C
same,Tmax (temperature at maximum rate of weight loss),[11]; [14],382 ˚C
same,Ea (activation energy for decomposition),[11]; [15],22.9 kcal/mol
same,EC3,[8]; [16],0.036 M
same,IC50,[9],22 µM
same,Classification as sensitizer,"[1]; mice and guinea pigs, ref Thorgeirsson et al., 1978, Delaine et al., 2011, Pontén et al., 2002, Basketter et al., 2005",strong sensitizers
same,ECKS1.5,[10],5.2 µM
same,ECKS4.5,[10],10 µM
"O=[N+]([O-])c1ccccc1OCC1CO1 (centres unmarked) [Compound 2, 2-((2-nitrophenoxy)methyl)oxirane]",IC50 at 48 h,[2],88 µM
same,peptide remaining,"[3]; after 40 min, pH 7.4",28%
same,peptide remaining,"[3]; at 200 min, pH 7.4",24%
same,Classification,[7],Sensitizer
same,ECKS1.5,[7],12 µM
same,ECKS4.5,[7],37 µM
